Results on 15 molecules are retold here after patent US20220340597A1, “HEXAHYDRO-1H-PYRAZINO[1,2-A]PYRAZINE COMPOUNDS FOR THE TREATMENT OF AUTOIMMUNE DISEASE” (Hoffmann-La Roche Inc., priority 2019, published 2022).

The target in one experiment is T1, human TLR8 (Homo sapiens, UniProt Q9NR97).
T1 sequence (Q9NR97 27-1041): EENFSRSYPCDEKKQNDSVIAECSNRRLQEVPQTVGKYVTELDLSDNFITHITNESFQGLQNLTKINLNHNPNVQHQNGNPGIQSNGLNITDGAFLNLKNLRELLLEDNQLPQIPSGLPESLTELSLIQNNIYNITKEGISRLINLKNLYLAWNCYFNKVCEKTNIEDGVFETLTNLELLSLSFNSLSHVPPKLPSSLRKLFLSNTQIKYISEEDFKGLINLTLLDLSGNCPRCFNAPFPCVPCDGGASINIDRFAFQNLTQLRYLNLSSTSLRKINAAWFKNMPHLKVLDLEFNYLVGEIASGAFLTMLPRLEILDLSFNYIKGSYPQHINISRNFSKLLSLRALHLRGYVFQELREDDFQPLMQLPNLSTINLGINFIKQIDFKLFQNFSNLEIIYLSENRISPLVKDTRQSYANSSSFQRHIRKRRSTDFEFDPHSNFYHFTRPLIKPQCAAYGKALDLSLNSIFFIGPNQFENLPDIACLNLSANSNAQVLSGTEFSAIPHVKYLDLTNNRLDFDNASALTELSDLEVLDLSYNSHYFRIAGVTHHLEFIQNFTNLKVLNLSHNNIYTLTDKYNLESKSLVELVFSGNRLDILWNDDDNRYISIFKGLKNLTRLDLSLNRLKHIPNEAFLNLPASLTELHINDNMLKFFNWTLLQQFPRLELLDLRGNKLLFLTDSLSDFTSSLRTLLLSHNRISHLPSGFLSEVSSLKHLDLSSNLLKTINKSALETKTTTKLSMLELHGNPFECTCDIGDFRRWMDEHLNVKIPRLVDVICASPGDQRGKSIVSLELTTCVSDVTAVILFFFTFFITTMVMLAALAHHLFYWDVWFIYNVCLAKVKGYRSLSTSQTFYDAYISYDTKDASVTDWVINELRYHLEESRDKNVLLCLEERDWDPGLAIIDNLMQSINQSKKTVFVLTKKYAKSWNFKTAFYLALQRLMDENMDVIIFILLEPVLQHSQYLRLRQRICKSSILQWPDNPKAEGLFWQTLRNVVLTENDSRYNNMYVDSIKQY
Description: HEK293-Blue-hTLR-8 cells assay.

The target in a further experiment is T2, human TLR9 (Homo sapiens, UniProt Q9NR96).
T2 construct: host or cells: HEK293 (HEK-Blue hTLR9)
T2 sequence (Q9NR96 26-1032): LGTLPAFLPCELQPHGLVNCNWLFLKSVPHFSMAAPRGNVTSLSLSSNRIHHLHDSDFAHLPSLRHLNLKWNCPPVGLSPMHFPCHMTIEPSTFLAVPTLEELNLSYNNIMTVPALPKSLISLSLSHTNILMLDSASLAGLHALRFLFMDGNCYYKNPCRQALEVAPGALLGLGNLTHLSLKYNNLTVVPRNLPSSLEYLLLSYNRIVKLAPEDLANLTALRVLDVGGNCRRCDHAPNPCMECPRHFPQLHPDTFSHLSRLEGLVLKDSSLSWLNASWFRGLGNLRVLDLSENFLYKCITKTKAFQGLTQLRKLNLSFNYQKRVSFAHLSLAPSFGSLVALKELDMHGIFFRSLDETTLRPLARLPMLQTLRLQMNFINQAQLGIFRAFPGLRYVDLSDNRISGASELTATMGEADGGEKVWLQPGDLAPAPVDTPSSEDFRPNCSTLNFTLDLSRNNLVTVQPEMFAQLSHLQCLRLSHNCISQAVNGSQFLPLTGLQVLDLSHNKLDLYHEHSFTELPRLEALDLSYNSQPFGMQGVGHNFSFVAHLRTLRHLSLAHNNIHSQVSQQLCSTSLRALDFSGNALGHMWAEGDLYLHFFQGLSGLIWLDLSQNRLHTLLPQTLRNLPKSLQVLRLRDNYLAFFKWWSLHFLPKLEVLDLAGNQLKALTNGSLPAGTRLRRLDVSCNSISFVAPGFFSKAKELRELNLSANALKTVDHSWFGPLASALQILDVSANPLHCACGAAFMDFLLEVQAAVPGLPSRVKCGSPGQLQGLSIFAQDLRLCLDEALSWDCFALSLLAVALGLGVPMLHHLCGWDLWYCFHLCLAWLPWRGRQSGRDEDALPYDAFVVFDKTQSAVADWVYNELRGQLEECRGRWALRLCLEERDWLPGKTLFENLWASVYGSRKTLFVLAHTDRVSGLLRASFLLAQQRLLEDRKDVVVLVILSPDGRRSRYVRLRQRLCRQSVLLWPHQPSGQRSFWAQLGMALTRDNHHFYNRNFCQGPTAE
Description: HEK293-Blue-hTLR-9 cells assay. The experiment is classed as cell-based. To be noted: HEK293-Blue-hTLR9 cells, ODN2006 stimulation, 20 hrs, SEAP reporter; read-out: HEK/hTLR9 IC50.

Bounds are passed on as bounds.

For the molecule `CO[C@H]1CN(c2ccc(CCN3CCN4[C@@H](C3)CN(c3ccc(C#N)c5ncccc35)C[C@H]4C)cn2)C[C@@H]1N` [Example 25, 5-[(4R,9aS)-8-[2-[6-[(3S,4S)-3-amino-4-methoxy-pyrrolidin-1-yl]-3-pyridyl]ethyl]-4-methyl-3,4,6,7,9,9a-hexahydro-1H-pyrazino[1,2-a]pyrazin-2-yl]quinoline-8-carbonitrile], the results for the IC50 against human TLR8 and at human TLR9 were 25 nM and 64 nM, respectively.

`[2H]c1ccc2c(N3C[C@@H]4CN(c5ccc(CCN6C[C@@H](N)[C@@H](F)C6)nc5)CCN4[C@@H](C)C3)ccc(C#N)c2n1` [Example 117, 5-[(4S,9aR)-8-[6-[2-[(3R,4S)-3-amino-4-fluoro-pyrrolidin-1-yl]ethyl]-3-pyridyl]-4-methyl-3,4,6,7,9,9a-hexahydro-1H-pyrazino[1,2-a]pyrazin-2-yl]-2-deuterio-quinoline-8-carbonitrile]: the IC50 against human TLR8 was 24 nM; at human TLR9, 42 nM.

Take `[2H]c1ccc2c(N3C[C@@H]4CN(CCc5ccc(N6C[C@H]7NCCO[C@@H]7C6)nc5)CCN4[C@H](C)C3)ccc(C#N)c2n1` [Example 77, 5-[(4R,9aS)-8-[2-[6-[(4aR,7aR)-3,4,4a,5,7,7a-hexahydro-2H-pyrrolo[3,4-b][1,4]oxazin-6-yl]-3-pyridyl]ethyl]-4-methyl-3,4,6,7,9,9a-hexahydro-1H-pyrazino[1,2-a]pyrazin-2-yl]-2-deuterio-quinoline-8-carbonitrile]: the IC50 against human TLR8 is 24 nM; at human TLR9, 44 nM.

With `Cc1cc(N2CC3(CN(C)C3)C2)cnc1N1CCN2[C@@H](C1)CN(c1cc(=O)n(C)c3ncccc13)C[C@@H]2C` [Example 113, 4-[(4S,9aR)-4-methyl-8-[3-methyl-5-(6-methyl-2,6-diazaspiro[3.3]heptan-2-yl)-2-pyridyl]-3,4,6,7,9,9a-hexahydro-1H-pyrazino[1,2-a]pyrazin-2-yl]-1-methyl-1,8-naphthyridin-2-one], the IC50 was 142 nM on human TLR8 and 126 nM on human TLR9.

On to `[2H]c1ccc2c(N3C[C@@H]4CN(c5ccc(CN6C[C@@H](N)[C@H](OC)C6)c(C)n5)CCN4[C@@H](C)C3)ccc(C#N)c2n1` [Example 123, 5-[(4S,9aR)-8-[5-[[(3R,4R)-3-amino-4-methoxy-pyrrolidin-1-yl]methyl]-6-methyl-2-pyridyl]-4-methyl-3,4,6,7,9,9a-hexahydro-1H-pyrazino[1,2-a]pyrazin-2-yl]-2-deuterio-quinoline-8-carbonitrile], for which the figures for the IC50 at human TLR8 and at human TLR9 were 6 nM and 107 nM, respectively.

Consider `C[C@@H]1CN(c2ccc(C#N)c3ncccc23)C[C@@H]2CN(c3ccnc(N4CCNCC4)c3)CCN21` [Example 32, 5-[(4R,9aS)-4-methyl-8-(2-piperazin-1-yl-4-pyridyl)-3,4,6,7,9,9a-hexahydro-1H-pyrazino[1,2-a]pyrazin-2-yl]quinoline-8-carbonitrile], for which the IC50 worked out at 11 nM at human TLR8 and 34 nM on human TLR9.

As to `C[C@@H]1CN(c2ccc(C#N)n3ncc(F)c23)C[C@@H]2CN(Cc3ccc4c(c3)CNCC4)CCN21` [Example 69, 4-[(4R,9aS)-4-methyl-8-(1,2,3,4-tetrahydroisoquinolin-7-ylmethyl)-3,4,6,7,9,9a-hexahydro-1H-pyrazino[1,2-a]pyrazin-2-yl]-3-fluoro-pyrazolo[1,5-a]pyridine-7-carbonitrile], the IC50 against human TLR8 was found to be 52 nM; at human TLR9, 142 nM.

For `C[C@@H]1CN(c2ccc(C#N)c3ncccc23)C[C@@H]2CN(c3nccc4c3CCNC4)CCN21` [Example 16, 5-[(4R,9aR)-4-methyl-8-(5,6,7,8-tetrahydro-2,6-naphthyridin-1-yl)-3,4,6,7,9,9a-hexahydro-1H-pyrazino[1,2-a]pyrazin-2-yl]quinoline-8-carbonitrile], the IC50 against human TLR8 was 9 nM; at human TLR9, 120 nM.

On to `[2H]c1ccc2c(N3C[C@@H]4CN(c5ccc(N6CC7CCC(C6)N7)nc5)CCN4[C@@H](C)C3)ccc(C#N)c2n1` [Example 112, 5-[(4S,9aR)-8-[6-(3,8-diazabicyclo[3.2.1]octan-3-yl)-3-pyridyl]-4-methyl-3,4,6,7,9,9a-hexahydro-1H-pyrazino[1,2-a]pyrazin-2-yl]-2-deuterio-quinoline-8-carbonitrile], for which the IC50 is 10 nM on human TLR8 and 82 nM on human TLR9.

Turning to `C[C@@H]1CN(c2ccc(C#N)c3ncccc23)C[C@@H]2CN(c3ccnc(N4C[C@@H](F)[C@@H](N)C4)c3)CCN21` [Example 40, 5-[(4R,9aS)-8-[2-[(3S,4R)-3-amino-4-fluoro-pyrrolidin-1-yl]-4-pyridyl]-4-methyl-3,4,6,7,9,9a-hexahydro-1H-pyrazino[1,2-a]pyrazin-2-yl]quinoline-8-carbonitrile], the IC50 at human TLR8 was 7 nM; on human TLR9, below 32 nM.

In the case of `C[C@@H]1CN(c2ccc(C#N)c3ncccc23)C[C@@H]2CN(c3cccc4c3CNC4)CCN21` [Example 9, 5-[(4R,9aS)-8-isoindolin-4-yl-4-methyl-3,4,6,7,9,9a-hexahydro-1H-pyrazino[1,2-a]pyrazin-2-yl]quinoline-8-carbonitrile], the IC50 against human TLR8 was found to be 1 nM; at human TLR9 it was 79 nM.

On to `C[C@@H]1CN(c2ccc(C#N)c3ncccc23)C[C@@H]2CN(c3ccnc(N4CCOC[C@H](N)C4)c3)CCN21` [Example 54, 5-[(4R,9aS)-8-[2-[(6R)-6-amino-1,4-oxazepan-4-yl]-4-pyridyl]-4-methyl-3,4,6,7,9,9a-hexahydro-1H-pyrazino[1,2-a]pyrazin-2-yl]quinoline-8-carbonitrile], for which the IC50 on human TLR8 came out at 26 nM; at human TLR9, 43 nM.

`C[C@@H]1CN(c2ccc(C#N)c3ncccc23)C[C@@H]2CN(Cc3cccc(N4CCNCC4)n3)CCN21` [Example 27, 5-[(4R,9aS)-4-methyl-8-[(6-piperazin-1-yl-2-pyridyl)methyl]-3,4,6,7,9,9a-hexahydro-1H-pyrazino[1,2-a]pyrazin-2-yl]quinoline-8-carbonitrile]: the results for the IC50 at human TLR8 and on human TLR9 were 13 nM and 49 nM, respectively.

In the case of `N#Cc1ccc(N2CCN3CCN(c4cccc5c4CNC5)CC3C2)c2cccnc12` (stereo not drawn) [Example 35, 5-(8-isoindolin-4-yl-3,4,6,7,9,9a-hexahydro-1H-pyrazino[1,2-a]pyrazin-2-yl)quinoline-8-carbonitrile], the IC50 stood at 8 nM against human TLR8 and 98 nM on human TLR9.

Turning to `[2H]c1ccc2c(N3C[C@@H]4CN(c5ccc([C@@H]6CNCCO6)cc5)CCN4[C@@H](C)C3)ccc(C#N)c2n1` [Example 106, 5-[(4S,9aS)-4-methyl-8-[4-[(2R)-morpholin-2-yl]phenyl]-3,4,6,7,9,9a-hexahydro-1H-pyrazino[1,2-a]pyrazin-2-yl]-2-deuterio-quinoline-8-carbonitrile], the IC50 came to 4 nM at human TLR8 and 128 nM on human TLR9.
